Here are results for two molecules from US3954871A, “1-(4-Alkylthiopheny)-2-substituted amino-alcohols and their salts” (Continental Pharma, priority 1969, dated 1976).

SMILES strings stand for the structures.

The data set in a line: Solubility of salt in water. The data set is classed as physicochemical. The method, then: To 1.20 g of 1-(3-methyl-4-methylthiophenyl)-2-isopropylaminoethanol in 40 ml of water, 1.96 ml of a 50% gluconic acid solution are added. The mixture is heated in water-bath during 1 hour at 70°, then the solution is lyophilised (2.18 g of the salt obtained are soluble in 5 ml of water and give a pH of 4.6).
To 1.2 g of 1-(3-methyl-4-methylthiophenyl)-2-isopropylaminoethanol in 32 ml of water, 0.53 g of a 85% aqueous lactic acid solution are added. The product is heated in a water-bath for 2 hours at 50°, then the solution is lyophilised. (1.55g of the salt obtained are soluble in 5 ml of water).

For `CSc1ccc(C(O)CNC(C)C)cc1C` (stereo not drawn) [1-(3-Methyl-4-methylthiophenyl)-2-isopropylaminoethanol lact] [1-(3-Methyl-4-methylthiophenyl)-2-isopropylaminoethanol lactate], the “amount of salt soluble in 5 ml of water” value is at least 1.55 g.
Take `CSc1ccc(C(O)CNC(C)C)cc1C` (stereo not drawn) [1-(3-Methyl-4-methylthiophenyl)-2-isopropylaminoethanol gluc] [1-(3-Methyl-4-methylthiophenyl)-2-isopropylaminoethanol gluconate]: the “amount of salt soluble in 5 ml of water” value is listed as at least 2.18 g. In addition, the “pH of solution of salt in water” value (2.18 g in 5 ml of water) stood at 4.6.
